Columns and labels:
[1] = system: freely moving adult male Sprague-Dawley rats; test: Whole-body plethysmography of ventilatory parameters in morphine-treated rats; conditions: morphine 10 mg/kg IV; for EF50, ml/sec - Total Response (% change) / Expiratory Drive (TV/Te), ml/sec - Total Response (% change) / Expiratory Time (Te), sec - Total Response (% change) / Frequency, breaths/min - Total Response (% change) / Inspiratory Drive (TV/Ti), ml/sec - Total Response (% change) / Inspiratory Time (Ti), sec - Total Response (% change) / Inspiratory Time/Expiratory Time - Total Response (% change) / Minute Ventilation, ml/min - Total Response (% change) / Peak Expiratory Flow, ml/sec - Total Response (% change) / Peak Expiratory Flow/Peak Inspiratory Flow - Total Response (% change) / Peak Inspiratory Flow, ml/sec - Total Response (% change) / Tidal Volume (TV), ml - Total Response (% change): over the 15 min before drug injection
Procedure: Permissions, rats, surgical procedures and blinding of protocols. All studies were carried out in accordance with the NIH Guide for the Care and Use of Laboratory Animals (NIH Publication No. […]) revised in 1996. The protocols were approved by the Animal Care and Use Committees of the University of Virginia, Case Western Reserve University and Loma Linda University. In addition, all studies were carried out in compliance with the ARRIVE (Animal Research: Reporting of In Vivo Experiments) guidelines. Adult male Sprague-Dawley rats (Harlan, Madison, WI, USA) were implanted with jugular vein catheters under 2% isoflurane anesthesia and some rats received femoral arterial catheters. The rats were allowed at least four days to recover from surgery before use. All arterial catheters were flushed daily with heparin solution (50 units of heparin in phosphate-buffered saline at 0.1 M, pH 7.4). All catheters were flushed with phosphate-buffered saline (0.1 M, pH 7.4) approximately four hours before commencement of the experiments. All studies were performed in a quiet laboratory with relative humidity of 49±2% and room temperature of 21.4±0.2° C. […] Also, please note that the antinociception and ventilatory studies were done in separate groups of rats so as to not complicate the respiratory measurements. The recording (plethysmography, antinociception) sessions and the arterial blood gas assays were done by a particular investigator who administered the opioid, vehicle or test drug such as d-cystine diME. The syringes containing the vehicle or test drug were made up by another investigator, such that the investigator running the actual experiment was blinded to the treatment protocol. In every case, the data files resulting from a particular study were first collated and analyzed by another investigator in the group.
Ventilatory parameters were recorded in freely moving rats by whole body plethysmography (PLY3223; Data Sciences International, St. Paul, MN). The rats were placed in individual chambers and given 60 min to acclimatize to allow true resting ventilatory parameters to be established. […] The rats received another injection of vehicle or 1-NACme (500 μmol/kg, IV) 15 min later and ventilatory parameters were recorded for a further 60 min.
The provided software (Fine Pointe, BUXCO) constantly corrected digitized values for changes in chamber temperature and humidity. Pressure changes associated with the respiratory waveforms were then converted to volumes (i.e., TV, PIF and PEF) using the algorithm of Epstein and colleagues. Specifically, factoring in chamber temperature and humidity, the cycle analyzers filtered the acquired signals, and BUXCO algorithms (Fine Pointe) generated an array of box flow data that identified a waveform segment as an acceptable breath. From that data vector, the minimum and maximum values were determined. Flows at this point were considered to be “box flow” signals.
The recorded data (1 min bins) and derived parameters, Vt/Ti and Response Area (cumulative percent changes from pre-values) were taken for statistical analyses. The pre-drug 1 min bins excluded occasional marked deviations from resting due to movements or scratching by the rats. These exclusions ensured accurate determinations of baseline parameters. The data are presented as mean±SEM. All data unless other-wise stated (see immediately below) were analyzed by one-way or two-way analysis of variance followed by Student's modified t test with Bonferroni corrections for multiple comparisons between means using the error mean square terms from each ANOVA. A value of P<0.05 denoted the initial level of statistical significance that was modified according to the number of comparisons between means.

freely moving rats = test: Tail-flick latency (TFL) test; format: in vivo, rat; conditions: for Tail-Flick latency: vehicle-pretreated rats, morphine 10 mg/kg IV
[2] = freely moving rats, then d-cystine diEE 500 μmol/kg IV 15 min later
[3] = rats that subsequently received D-Cystine diEE
[4] = rats that subsequently received vehicle, D-Cystine diEE study
[5] = rats that subsequently received D-Cystine
[6] = rats that subsequently received L-NACme
[7] = rats that subsequently received vehicle, D-Cystine study
[8] = rats that subsequently received vehicle, L-NACme study

CN1CC[C@]23c4c5ccc(O)c4O[C@H]2[C@@H](O)C=C[C@H]3[C@H]1C5 [Morphine, morphine]
changes in EF50 [1, 2]: sustained increase | changes in expiratory drive (TV/Te) [1, 2]: relatively pronounced but shorter-lived decrease | changes in expiratory time (Te) [1, 2]: decreases in Te | changes in frequency of breathing (Freq) [1, 2]: brief increase in Freq that was followed a relatively transient decrease | changes in inspiratory drive (TV/Ti) [1, 2]: prompt and sustained decrease | changes in inspiratory time (Ti) [1, 2]: sustained increases in Ti | changes in minute ventilation (MV) [1, 2]: transient increase in MV that was followed by a sustained decrease | changes in peak expiratory flow (PEF) [1, 2]: lesser decreases | changes in peak inspiratory flow (PIF) [1, 2]: pronounced and sustained decrease | changes in tidal volume (TV) [1, 2]: prompt and sustained decrease | EF50, ml/sec - Total Response (% change) [1, 3]: +33.4 ± 15.0 % | Expiratory Drive (TV/Te), ml/sec - Total Response (% change) [1, 3]: −14.6 ± 10.2% | Expiratory Time (Te), sec - Total Response (% change) [1, 3]: −2.0 ± 6.1% | Frequency, breaths/min - Total Response (% change) [1, 3]: −1.9 ± 6.6% | Inspiratory Drive (TV/Ti), ml/sec - Total Response (% change) [1, 3]: −44.5 ± 5.5 % | Inspiratory Time (Ti), sec - Total Response (% change) [1, 3]: +40.2 ± 6.3 % | Inspiratory Time/Expiratory Time - Total Response (% change) [1, 3]: −27.1 ± 6.2 % | Minute Ventilation, ml/min - Total Response (% change) [1, 3]: −28.4 ± 6.4 % | Peak Expiratory Flow, ml/sec - Total Response (% change) [1, 3]: −16.2 ± 5.7 % | Peak Expiratory Flow/Peak Inspiratory Flow - Total Response (% change) [1, 3]: +21.5 ± 6.7 % | Peak Inspiratory Flow, ml/sec - Total Response (% change) [1, 3]: −29.7 ± 2.7 % | Tidal Volume (TV), ml - Total Response (% change) [1, 3]: −26.3 ± 7.4 % | EF50, ml/sec - Total Response (% change) [1, 4]: +30.5 ± 14.7 % | Expiratory Drive (TV/Te), ml/sec - Total Response (% change) [1, 4]: −22.3 ± 13.6% | Expiratory Time (Te), sec - Total Response (% change) [1, 4]: −4.7 ± 6.0% | Frequency, breaths/min - Total Response (% change) [1, 4]: +0.3 ± 4.3% | Inspiratory Drive (TV/Ti), ml/sec - Total Response (% change) [1, 4]: −44.3 ± 7.1 % | Inspiratory Time (Ti), sec - Total Response (% change) [1, 4]: +38.6 ± 2.9 % | Inspiratory Time/Expiratory Time - Total Response (% change) [1, 4]: −24.1 ± 4.7 % | Minute Ventilation, ml/min - Total Response (% change) [1, 4]: −28.6 ± 7.2 % | Peak Expiratory Flow, ml/sec - Total Response (% change) [1, 4]: −17.4 ± 6.1 % | Peak Expiratory Flow/Peak Inspiratory Flow - Total Response (% change) [1, 4]: +27.6 ± 7.0 % | Peak Inspiratory Flow, ml/sec - Total Response (% change) [1, 4]: −29.5 ± 8.1 % | Tidal Volume (TV), ml - Total Response (% change) [1, 4]: −29.3 ± 7.6 % | Frequency: Morphine - first 15 min response (%) [1, 5]: −4.7 ± 3.1% | Frequency: Morphine - peak (+) response (%) [1, 5]: +62 ± 7 % | Frequency: Morphine peak (−) response (%) [1, 5]: −23 ± 4 % | Minute Ventilation: Morphine - first 15 min response (%) [1, 5]: −38 ± 5 % | Minute Ventilation: Morphine - peak (+) response (%) [1, 5]: +14 ± 3 % | Minute Ventilation: Morphine peak (−) response (%) [1, 5]: −61 ± 8 % | Tidal Volume: Morphine - first 15 min response (%) [1, 5]: −35 ± 5 % | Tidal Volume: Morphine - peak (+) response (%) [1, 5]: −30 ± 4 % | Tidal Volume: Morphine peak (−) response (%) [1, 5]: −51 ± 6 % | EF50, ml/sec - Peak Responses (% change) [1, 3]: +122 ± 27 % | Expiratory Drive (TV/Te), ml/sec - Peak Responses (% change) [1, 3]: −46.2 ± 7.8 % | Expiratory Time (Te), sec - Peak Responses (% change) [1, 3]: −32.4 ± 17.6% | Frequency, breaths/min - Peak Responses (% change) [1, 3]: −20.0 ± 4.5 % | Inspiratory Drive (TV/Ti), ml/sec - Peak Responses (% change) [1, 3]: −53.7 ± 6.0 % | Inspiratory Time (Ti), sec - Peak Responses (% change) [1, 3]: +41.3 ± 7.1 % | Inspiratory Time/Expiratory Time - Peak Responses (% change) [1, 3]: −41.7 ± 7.8 % | Minute Ventilation, ml/min - Peak Responses (% change) [1, 3]: −48.5 ± 6.0 % | Peak Expiratory Flow, ml/sec - Peak Responses (% change) [1, 3]: −34.8 ± 6.7 % | Peak Expiratory Flow/Peak Inspiratory Flow - Peak Responses (% change) [1, 3]: +26.7 ± 5.4 % | Peak Inspiratory Flow, ml/sec - Peak Responses (% change) [1, 3]: −43.2 ± 2.7 % | Tidal Volume (TV), ml - Peak Responses (% change) [1, 3]: −35.8 ± 6.9 % | Frequency: Morphine - first 15 min response (%) [1, 6]: −4.9 ± 2.8% | Frequency: Morphine - peak (+) response (%) [1, 6]: +42 ± 6 % | Frequency: Morphine peak (−) response (%) [1, 6]: −22 ± 4 % | Minute Ventilation: Morphine - first 15 min response (%) [1, 6]: −35 ± 3 % | Minute Ventilation: Morphine - peak (+) response (%) [1, 6]: +20 ± 6 % | Minute Ventilation: Morphine peak (−) response (%) [1, 6]: −54 ± 4 % | Tidal Volume: Morphine - first 15 min response (%) [1, 6]: −34 ± 3 % | Tidal Volume: Morphine - peak (+) response (%) [1, 6]: −16 ± 6 % | Tidal Volume: Morphine peak (−) response (%) [1, 6]: −40 ± 6 % | EF50, ml/sec - Peak Responses (% change) [1, 4]: +133 ± 42 % | Expiratory Drive (TV/Te), ml/sec - Peak Responses (% change) [1, 4]: −51.5 ± 10.1 % | Expiratory Time (Te), sec - Peak Responses (% change) [1, 4]: −29.3 ± 17.1% | Frequency, breaths/min - Peak Responses (% change) [1, 4]: −21.5 ± 3.4 % | Inspiratory Drive (TV/Ti), ml/sec - Peak Responses (% change) [1, 4]: −52.7 ± 5.4 % | Inspiratory Time (Ti), sec - Peak Responses (% change) [1, 4]: +37.9 ± 3.0 % | Inspiratory Time/Expiratory Time - Peak Responses (% change) [1, 4]: −38.0 ± 4.2 % | Minute Ventilation, ml/min - Peak Responses (% change) [1, 4]: −51.2 ± 6.3 % | Peak Expiratory Flow, ml/sec - Peak Responses (% change) [1, 4]: −38.1 ± 8.5 % | Peak Expiratory Flow/Peak Inspiratory Flow - Peak Responses (% change) [1, 4]: +30.2 ± 3.4 % | Peak Inspiratory Flow, ml/sec - Peak Responses (% change) [1, 4]: −45.6 ± 7.0 % | Tidal Volume (TV), ml - Peak Responses (% change) [1, 4]: −42.9 ± 8.7 % | Frequency: Morphine - first 15 min response (%) [1, 7]: −3.8 ± 2.6% | Frequency: Morphine - peak (+) response (%) [1, 7]: +57 ± 8 % | Frequency: Morphine peak (−) response (%) [1, 7]: −21 ± 3 % | Minute Ventilation: Morphine - first 15 min response (%) [1, 7]: −39 ± 4 % | Minute Ventilation: Morphine - peak (+) response (%) [1, 7]: +9 ± 3 % | Minute Ventilation: Morphine peak (−) response (%) [1, 7]: −60 ± 9 % | Tidal Volume: Morphine - first 15 min response (%) [1, 7]: −37 ± 6 % | Tidal Volume: Morphine - peak (+) response (%) [1, 7]: −32 ± 5 % | Tidal Volume: Morphine peak (−) response (%) [1, 7]: −49 ± 5 % | Frequency: Morphine - first 15 min response (%) [1, 8]: −4.0 ± 2.1% | Frequency: Morphine - peak (+) response (%) [1, 8]: +47 ± 6 % | Frequency: Morphine peak (−) response (%) [1, 8]: −24 ± 3 % | Minute Ventilation: Morphine - first 15 min response (%) [1, 8]: −36 ± 3 % | Minute Ventilation: Morphine - peak (+) response (%) [1, 8]: +19 ± 5 % | Minute Ventilation: Morphine peak (−) response (%) [1, 8]: −53 ± 5 % | Tidal Volume: Morphine - first 15 min response (%) [1, 8]: −33 ± 4 % | Tidal Volume: Morphine - peak (+) response (%) [1, 8]: −19 ± 3 % | Tidal Volume: Morphine peak (−) response (%) [1, 8]: −38 ± 5 % | duration of the increase in TFL (freely moving rats; morphine 10 mg/kg IV in vehicle-treated rats): at least 4 h | Tail-Flick latency (freely moving rats; post-morphine - 30 min): 12 ± 0.0 s | Tail-Flick latency (freely moving rats; post-morphine - 60 min): 12 ± 0.0 s | Tail-Flick latency (freely moving rats; post-morphine - 90 min): 11.7 ± 0.2 s | Tail-Flick latency (freely moving rats; post-morphine - 120 min): 11.1 ± 0.2 s | Tail-Flick latency (freely moving rats; post-morphine - 180 min): 8.3 ± 0.3 s | Tail-Flick latency (freely moving rats; post-morphine - 210 min): 5.6 ± 0.3 s | Tail-Flick latency (freely moving rats; post-morphine - 240 min): 4.3 ± 0.3 s | Tail-Flick latency (freely moving rats; post-morphine - 360 min): 3.3 ± 0.3 s

Reference: patent publication US12083089B2, “Compositions and methods for stimulating ventilatory and/or respiratory drive” (CASE WESTERN RESERVE UNIVERSITY, priority 2015, dated 2024)
